Test results reported in ChEMBL document CHEMBL4002567, “Rational design and synthesis of 1,5-disubstituted tetrazoles as potent inhibitors of the MDM2-p53 interaction” (Eur J Med Chem, 2017).

What was measured:
Protein Mdm4 = biological target: T1, Protein Mdm4 (Homo sapiens, UniProt O15151)
T1 sequence (O15151 whole entry): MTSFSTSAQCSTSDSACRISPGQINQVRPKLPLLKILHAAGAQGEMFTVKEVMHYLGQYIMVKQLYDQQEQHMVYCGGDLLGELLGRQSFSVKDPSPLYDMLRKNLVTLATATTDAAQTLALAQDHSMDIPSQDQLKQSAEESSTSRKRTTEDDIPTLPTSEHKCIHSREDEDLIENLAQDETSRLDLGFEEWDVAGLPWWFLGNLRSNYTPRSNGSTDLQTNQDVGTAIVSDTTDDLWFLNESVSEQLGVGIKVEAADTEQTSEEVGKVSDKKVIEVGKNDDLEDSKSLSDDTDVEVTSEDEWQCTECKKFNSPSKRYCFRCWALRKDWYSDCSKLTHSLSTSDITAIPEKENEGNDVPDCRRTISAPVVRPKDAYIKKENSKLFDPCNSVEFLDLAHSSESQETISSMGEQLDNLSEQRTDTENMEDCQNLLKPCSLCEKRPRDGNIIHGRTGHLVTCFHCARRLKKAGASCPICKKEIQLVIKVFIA

[1] = biological target: E3 ubiquitin-protein ligase Mdm2 (Homo sapiens, UniProt Q00987)
E3 ubiquitin-protein ligase Mdm2, sequence (Q00987 whole entry): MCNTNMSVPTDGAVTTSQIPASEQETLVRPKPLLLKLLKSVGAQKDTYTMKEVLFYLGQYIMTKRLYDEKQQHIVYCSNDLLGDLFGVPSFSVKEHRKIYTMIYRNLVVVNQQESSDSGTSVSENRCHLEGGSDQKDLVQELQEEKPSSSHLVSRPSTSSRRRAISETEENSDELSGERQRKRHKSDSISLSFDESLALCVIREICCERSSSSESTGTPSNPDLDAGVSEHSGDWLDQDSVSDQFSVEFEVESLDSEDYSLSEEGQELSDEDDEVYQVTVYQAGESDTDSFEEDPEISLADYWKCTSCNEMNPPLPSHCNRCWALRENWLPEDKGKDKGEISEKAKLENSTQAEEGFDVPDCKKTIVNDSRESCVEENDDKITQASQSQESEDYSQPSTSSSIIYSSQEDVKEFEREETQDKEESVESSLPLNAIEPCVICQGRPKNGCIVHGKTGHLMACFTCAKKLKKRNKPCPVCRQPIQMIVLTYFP

O=C(O)c1[nH]c2cc(Cl)ccc2c1C(NCC1CCCCC1)c1nnnn1Cc1ccc(OCc2ccccc2Cl)cc1 (configuration not stated)
Ki (Protein Mdm4): Not Active

CCOC(=O)c1[nH]c2cc(Cl)ccc2c1C(NC1CCCC1)c1nnnn1-c1cccc(Oc2ccccc2)c1 (configuration not stated)
Ki (Protein Mdm4): Not Active
Ki [1]: Not Active

O=C(O)c1[nH]c2cc(Cl)ccc2c1C(NC1CCCCC1)c1nnnn1-c1ccc(OCc2ccccc2)cc1 (configuration not stated)
Ki (Protein Mdm4): Not Active

CCOC(=O)c1[nH]c2cc(Cl)ccc2c1C(NCc1ccc(Cl)cc1)c1nnnn1Cc1ccc(Cl)cc1 (configuration not stated)
Ki (Protein Mdm4): Not Active
Ki [1]: Not Active

CCOC(=O)c1[nH]c2cc(Cl)ccc2c1C(NCC1CCCCC1)c1nnnn1Cc1ccc(Cl)cc1 (configuration not stated)
Ki (Protein Mdm4): Not Active
Ki [1]: Not Active

CCCCCNC(c1c(C(=O)O)[nH]c2cc(Cl)ccc12)c1nnnn1-c1ccc(F)c(Cl)c1 (configuration not stated)
Ki (Protein Mdm4): Not Active

O=C(O)c1[nH]c2cc(Cl)ccc2c1C(NC1CCCCCC1)c1nnnn1-c1cccc(OCc2ccccc2)c1 (configuration not stated)
Ki (Protein Mdm4): Not Active

CCCCCNC(c1c(C(=O)OCC)[nH]c2cc(Cl)ccc12)c1nnnn1-c1ccc(OCc2c(Cl)cccc2Cl)cc1 (configuration not stated)
Ki (Protein Mdm4): Not Active
Ki [1]: Not Active

CCOC(=O)c1[nH]c2cc(Cl)ccc2c1C(NCc1ccc(Cl)cc1)c1nnnn1Cc1ccc(OCc2ccccc2Br)cc1 (configuration not stated)
Ki (Protein Mdm4): Not Active
Ki [1]: Not Active

CCOC(=O)c1[nH]c2cc(Cl)ccc2c1C(NCC1CCCCC1)c1nnnn1-c1ccc(OCc2ccccc2Br)cc1 (configuration not stated)
Ki (Protein Mdm4): Not Active
Ki [1]: Not Active

O=C(O)c1[nH]c2cc(Cl)ccc2c1C(NCC1CCCCC1)c1nnnn1Cc1ccc(OCc2ccccc2F)cc1 (configuration not stated)
Ki (Protein Mdm4): Not Active

O=C(O)c1[nH]c2cc(Cl)ccc2c1C(NC1CCCC1)c1nnnn1-c1cccc(OCc2ccccc2)c1 (configuration not stated)
Ki (Protein Mdm4): Not Active

CCCCCNC(c1c(C(=O)OCC)[nH]c2cc(Cl)ccc12)c1nnnn1-c1ccc(C(C)C)cc1 (configuration not stated)
Ki (Protein Mdm4): Not Active
Ki [1]: Not Active

CCOC(=O)c1[nH]c2cc(Cl)ccc2c1C(NC1CCCCC1)c1nnnn1-c1cccc(OCc2ccccc2)c1 (configuration not stated)
Ki (Protein Mdm4): Not Active
Ki [1]: Not Active

O=C(O)c1[nH]c2cc(Cl)ccc2c1C(NCC1CCCCC1)c1nnnn1Cc1ccc(Cl)cc1 (configuration not stated)
Ki (Protein Mdm4): Not Active

O=C(O)c1[nH]c2cc(Cl)ccc2c1C(NCC1CCCCC1)c1nnnn1-c1ccc(OCc2c(Cl)cccc2Cl)cc1 (configuration not stated)
Ki (Protein Mdm4): Not Active

CCOC(=O)c1[nH]c2cc(Cl)ccc2c1C(NC1CCCCCC1)c1nnnn1-c1cccc(Oc2ccccc2)c1 (configuration not stated)
Ki (Protein Mdm4): Not Active
Ki [1]: Not Active

CCCCCNC(c1c(C(=O)O)[nH]c2cc(Cl)ccc12)c1nnnn1Cc1ccc(OCc2ccccc2Cl)cc1 (configuration not stated)
Ki (Protein Mdm4): Not Active

CCCCCNC(c1c(C(=O)OCC)[nH]c2cc(Cl)ccc12)c1nnnn1-c1ccc(OCc2ccccc2Br)cc1 (configuration not stated)
Ki (Protein Mdm4): Not Active
Ki [1]: Not Active

CCOC(=O)c1[nH]c2cc(Cl)ccc2c1C(NC1CCCCC1)c1nnnn1-c1ccc(OCc2ccccc2)cc1 (configuration not stated)
Ki (Protein Mdm4): Not Active
Ki [1]: Not Active

O=C(O)c1[nH]c2cc(Cl)ccc2c1C(NCC1CCCCC1)c1nnnn1-c1ccc(OCc2ccc(Br)cc2)cc1 (configuration not stated)
Ki (Protein Mdm4): Not Active

CCOC(=O)c1[nH]c2cc(Cl)ccc2c1C(NCC1CCCCC1)c1nnnn1-c1ccc(OCc2ccc(Br)cc2)cc1 (configuration not stated)
Ki (Protein Mdm4): Not Active
Ki [1]: Not Active

O=C(O)c1[nH]c2cc(Cl)ccc2c1C(NC1CCCC1)c1nnnn1-c1cccc(Oc2ccccc2)c1 (configuration not stated)
Ki (Protein Mdm4): Not Active

CCOC(=O)c1[nH]c2cc(Cl)ccc2c1C(NCC1CCCCC1)c1nnnn1-c1ccc(F)c(Cl)c1 (configuration not stated)
Ki (Protein Mdm4): Not Active
Ki [1]: Not Active

CCOC(=O)c1[nH]c2cc(Cl)ccc2c1C(NC1CCCCC1)c1nnnn1-c1cccc(Oc2ccccc2)c1 (configuration not stated)
Ki (Protein Mdm4): Not Active
Ki [1]: Not Active

CCCCCNC(c1c(C(=O)OCC)[nH]c2cc(Cl)ccc12)c1nnnn1-c1ccc(Cl)cc1 (configuration not stated)
Ki (Protein Mdm4): Not Active
Ki [1]: Not Active

O=C(O)c1[nH]c2cc(Cl)ccc2c1C(NC1CCCCC1)c1nnnn1-c1cccc(Oc2ccccc2)c1 (configuration not stated)
Ki (Protein Mdm4): Not Active

CCCCCNC(c1c(C(=O)O)[nH]c2cc(Cl)ccc12)c1nnnn1Cc1ccc(OCc2ccccc2Br)cc1 (configuration not stated)
Ki (Protein Mdm4): Not Active

O=C(O)c1[nH]c2cc(Cl)ccc2c1C(NC1CCCC1)c1nnnn1-c1ccc(OCc2ccccc2)cc1 (configuration not stated)
Ki (Protein Mdm4): Not Active

O=C(O)c1[nH]c2cc(Cl)ccc2c1C(NC1CCC1)c1nnnn1-c1ccc(OCc2ccccc2Br)cc1 (configuration not stated)
Ki (Protein Mdm4): Not Active

CCOC(=O)c1[nH]c2cc(Cl)ccc2c1C(NCC1CCCCC1)c1nnnn1Cc1ccc(OCc2ccccc2Cl)cc1 (configuration not stated)
Ki (Protein Mdm4): Not Active
Ki [1]: Not Active

CCOC(=O)c1[nH]c2cc(Cl)ccc2c1C(NC1CCCCCC1)c1nnnn1-c1ccc(OCc2ccccc2)cc1 (configuration not stated)
Ki (Protein Mdm4): Not Active
Ki [1]: Not Active

CCCCCNC(c1c(C(=O)OCC)[nH]c2cc(Cl)ccc12)c1nnnn1-c1ccc(F)c(Cl)c1 (configuration not stated)
Ki (Protein Mdm4): Not Active
Ki [1]: Not Active

CC(C)c1ccc(-n2nnnc2C(NCC2CCCCC2)c2c(C(=O)O)[nH]c3cc(Cl)ccc23)cc1 (configuration not stated)
Ki (Protein Mdm4): Not Active

CCCCCNC(c1c(C(=O)OCC)[nH]c2cc(Cl)ccc12)c1nnnn1Cc1ccc(Cl)cc1 (configuration not stated)
Ki (Protein Mdm4): Not Active
Ki [1]: Not Active

O=C(O)c1[nH]c2cc(Cl)ccc2c1C(NCC1CCCCC1)c1nnnn1-c1ccc(F)c(Cl)c1 (configuration not stated)
Ki (Protein Mdm4): Not Active

CCOC(=O)c1[nH]c2cc(Cl)ccc2c1C(NCC1CCCCC1)c1nnnn1-c1ccc(OCc2c(Cl)cccc2Cl)cc1 (configuration not stated)
Ki (Protein Mdm4): Not Active
Ki [1]: Not Active

O=C(O)c1[nH]c2cc(Cl)ccc2c1C(NC1CCCCCC1)c1nnnn1-c1ccc(OCc2ccccc2)cc1 (configuration not stated)
Ki (Protein Mdm4): Not Active

O=C(O)c1[nH]c2cc(Cl)ccc2c1C(NC1C2CC3CC(C2)CC1C3)c1nnnn1-c1ccc(OCc2ccccc2Br)cc1 (configuration not stated)
Ki (Protein Mdm4): Not Active

CCOC(=O)c1[nH]c2cc(Cl)ccc2c1C(NC1CCCCCC1)c1nnnn1-c1cccc(OCc2ccccc2)c1 (configuration not stated)
Ki (Protein Mdm4): Not Active
Ki [1]: Not Active

CCCCCNC(c1c(C(=O)O)[nH]c2cc(Cl)ccc12)c1nnnn1-c1ccc(OCc2ccc(Br)cc2)cc1 (configuration not stated)
Ki (Protein Mdm4): Not Active

O=C(O)c1[nH]c2cc(Cl)ccc2c1C(NCc1ccc(Cl)cc1)c1nnnn1Cc1ccc(Cl)cc1 (configuration not stated)
Ki (Protein Mdm4): Not Active

CCOC(=O)c1[nH]c2cc(Cl)ccc2c1C(NC1CCC1)c1nnnn1-c1ccc(OCc2ccccc2Br)cc1 (configuration not stated)
Ki (Protein Mdm4): Not Active
Ki [1]: Not Active

CCCCCNC(c1c(C(=O)OCC)[nH]c2cc(Cl)ccc12)c1nnnn1Cc1ccc(OCc2ccccc2F)cc1 (configuration not stated)
Ki (Protein Mdm4): Not Active

CCOC(=O)c1[nH]c2cc(Cl)ccc2c1C(NCC1CCCCC1)c1nnnn1Cc1ccc(OCc2ccccc2Br)cc1 (configuration not stated)
Ki (Protein Mdm4): Not Active
Ki [1]: Not Active

CCCCCNC(c1c(C(=O)O)[nH]c2cc(Cl)ccc12)c1nnnn1-c1ccc(OCc2c(Cl)cccc2Cl)cc1 (configuration not stated)
Ki (Protein Mdm4): Not Active

O=C(O)c1[nH]c2cc(Cl)ccc2c1C(NC1CCCCCC1)c1nnnn1-c1cccc(Oc2ccccc2)c1 (configuration not stated)
Ki (Protein Mdm4): Not Active

O=C(O)c1[nH]c2cc(Cl)ccc2c1C(NC1CCCCC1)c1nnnn1-c1cccc(OCc2ccccc2)c1 (configuration not stated)
Ki (Protein Mdm4): Not Active

O=C(O)c1[nH]c2cc(Cl)ccc2c1C(NCc1ccc(Cl)cc1)c1nnnn1Cc1ccc(OCc2ccccc2Br)cc1 (configuration not stated)
Ki (Protein Mdm4): Not Active

CCCCCNC(c1c(C(=O)O)[nH]c2cc(Cl)ccc12)c1nnnn1-c1ccc(OCc2ccccc2Br)cc1 (configuration not stated)
Ki (Protein Mdm4): Not Active

O=C(O)c1[nH]c2cc(Cl)ccc2c1C(NCC1CCCCC1)c1nnnn1Cc1ccc(OCc2ccccc2Br)cc1 (configuration not stated)
Ki (Protein Mdm4): Not Active

CCCCCNC(c1c(C(=O)O)[nH]c2cc(Cl)ccc12)c1nnnn1Cc1ccc(Cl)cc1 (configuration not stated)
Ki (Protein Mdm4): Not Active

CCOC(=O)c1[nH]c2cc(Cl)ccc2c1C(NC1CCCC1)c1nnnn1-c1ccc(OCc2ccccc2)cc1 (configuration not stated)
Ki (Protein Mdm4): Not Active
Ki [1]: Not Active

CCOC(=O)c1[nH]c2cc(Cl)ccc2c1C(NCC1CCCCC1)c1nnnn1-c1ccc(Cl)cc1 (configuration not stated)
Ki ([1]; read-out: Ki): 117 µM

CCCCCNC(c1c(C(=O)O)[nH]c2cc(Cl)ccc12)c1nnnn1-c1ccc(C(C)C)cc1 (configuration not stated)
Ki (Protein Mdm4): Not Active

CCCCCNC(c1c(C(=O)OCC)[nH]c2cc(Cl)ccc12)c1nnnn1-c1ccc(OCc2ccc(Br)cc2)cc1 (configuration not stated)
Ki (Protein Mdm4): Not Active
Ki [1]: Not Active

CCCCCNC(c1c(C(=O)OCC)[nH]c2cc(Cl)ccc12)c1nnnn1Cc1ccc(OCc2ccccc2Br)cc1 (configuration not stated)
Ki (Protein Mdm4): Not Active
Ki [1]: Not Active

CCCCCNC(c1c(C(=O)O)[nH]c2cc(Cl)ccc12)c1nnnn1-c1ccc(Cl)cc1 (configuration not stated)
Ki (Protein Mdm4): Not Active

O=C(O)c1[nH]c2cc(Cl)ccc2c1C(NCC1CCCCC1)c1nnnn1-c1ccc(OCc2ccccc2Br)cc1 (configuration not stated)
Ki (Protein Mdm4): Not Active

CCCCCNC(c1c(C(=O)OCC)[nH]c2cc(Cl)ccc12)c1nnnn1Cc1ccc(OCc2ccccc2Cl)cc1 (configuration not stated)
Ki (Protein Mdm4): Not Active
Ki [1]: Not Active
